Patent US20260365670A1, “EGFR INHIBITORS AND USES THEREOF” (DIZAL (JIANGSU) PHARMACEUTICAL CO., LTD., priority 2022, published 2026)
Read-outs that look alike come from different tables or passages of the source.

Key:
[1] = target: T1, EGFR wild type (Homo sapiens, UniProt P00533); test: Inhibition of EGFR wild type biochemical enzymatic activity (HTRF); conditions: EGFR wild type, 1 mM ATP, 1 h at room temperature, read-out: IC50 @WT
T1 construct: purchased Carna Bio
Method in brief: (§1)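 Recombinant kinases phosphorylated 1 μM biotinylated TK substrate with 1 mM ATP in buffer with 5 mM MgCl2, 1 mM MnCl2, 0.01% CHAPS, 1 mM DTT, 0.5% DMSO. Reaction ran 1 h at room temperature, stopped with EDTA-containing detection mix. HTRF 665/615 nm ratio gave IC50 via four-parameter logistic fit.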

[2] = target: T2, EGFR L858R (Homo sapiens, UniProt P00533, L858R); test: Inhibition of EGFR L858R biochemical enzymatic activity (HTRF); conditions: 1 mM ATP, 1 h at room temperature, read-out: IC50 @L858R
T2 construct: purchased Carna Bio
T2 sequence (P00533 25-1210 L858R): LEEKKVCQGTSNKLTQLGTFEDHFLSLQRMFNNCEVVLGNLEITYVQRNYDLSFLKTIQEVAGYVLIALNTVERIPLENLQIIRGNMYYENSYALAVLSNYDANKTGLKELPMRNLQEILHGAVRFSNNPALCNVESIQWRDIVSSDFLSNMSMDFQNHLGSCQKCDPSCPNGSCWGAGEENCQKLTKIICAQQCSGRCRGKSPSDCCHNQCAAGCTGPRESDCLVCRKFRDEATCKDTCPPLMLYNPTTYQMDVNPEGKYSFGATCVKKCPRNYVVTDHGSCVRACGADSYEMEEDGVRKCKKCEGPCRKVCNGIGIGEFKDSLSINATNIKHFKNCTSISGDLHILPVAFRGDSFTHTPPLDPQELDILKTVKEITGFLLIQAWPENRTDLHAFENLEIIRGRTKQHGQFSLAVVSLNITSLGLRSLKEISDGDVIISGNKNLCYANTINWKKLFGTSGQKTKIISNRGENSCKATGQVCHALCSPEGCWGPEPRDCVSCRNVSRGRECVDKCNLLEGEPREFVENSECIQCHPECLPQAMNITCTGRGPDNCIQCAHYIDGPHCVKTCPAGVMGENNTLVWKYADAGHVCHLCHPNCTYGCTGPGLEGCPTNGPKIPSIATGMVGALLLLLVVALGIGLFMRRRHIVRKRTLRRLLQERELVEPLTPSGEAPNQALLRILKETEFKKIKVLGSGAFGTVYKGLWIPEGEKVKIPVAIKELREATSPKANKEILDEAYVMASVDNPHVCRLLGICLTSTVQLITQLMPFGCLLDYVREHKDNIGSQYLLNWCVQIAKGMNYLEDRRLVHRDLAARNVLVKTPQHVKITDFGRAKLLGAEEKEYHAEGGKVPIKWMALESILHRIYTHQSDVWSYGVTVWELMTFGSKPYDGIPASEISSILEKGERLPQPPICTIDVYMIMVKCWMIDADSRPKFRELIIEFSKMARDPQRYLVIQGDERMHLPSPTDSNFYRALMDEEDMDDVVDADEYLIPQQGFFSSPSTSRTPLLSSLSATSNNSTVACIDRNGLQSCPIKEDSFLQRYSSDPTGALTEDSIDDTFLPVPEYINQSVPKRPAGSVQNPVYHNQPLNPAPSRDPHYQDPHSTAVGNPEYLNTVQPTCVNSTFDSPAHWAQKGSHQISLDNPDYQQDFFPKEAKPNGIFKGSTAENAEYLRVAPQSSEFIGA
Method in brief: as §1

[3] = target: T3, EGFR L858R/T790M (Homo sapiens, UniProt P00533, L858R/T790M); test: Inhibition of EGFR L858R/T790M biochemical enzymatic activity (HTRF); conditions: EGFR L858R/T790M, 1 mM ATP, 1 h at room temperature, read-out: IC50 @L858R-T790M
T3 construct: purchased Carna Bio
Method in brief: as §1

[4] = target: T4, EGFR Exon19Del (Homo sapiens, UniProt P00533, DEL746-750); test: Inhibition of EGFR Exon19Del biochemical enzymatic activity (HTRF); conditions: EGFR Exon19Del, 1 mM ATP, 1 h at room temperature, read-out: IC50 @Del19
T4 construct: purchased Carna Bio
T4 sequence (P00533 with tags, fused parts or gaps DEL746-750 limits assumed): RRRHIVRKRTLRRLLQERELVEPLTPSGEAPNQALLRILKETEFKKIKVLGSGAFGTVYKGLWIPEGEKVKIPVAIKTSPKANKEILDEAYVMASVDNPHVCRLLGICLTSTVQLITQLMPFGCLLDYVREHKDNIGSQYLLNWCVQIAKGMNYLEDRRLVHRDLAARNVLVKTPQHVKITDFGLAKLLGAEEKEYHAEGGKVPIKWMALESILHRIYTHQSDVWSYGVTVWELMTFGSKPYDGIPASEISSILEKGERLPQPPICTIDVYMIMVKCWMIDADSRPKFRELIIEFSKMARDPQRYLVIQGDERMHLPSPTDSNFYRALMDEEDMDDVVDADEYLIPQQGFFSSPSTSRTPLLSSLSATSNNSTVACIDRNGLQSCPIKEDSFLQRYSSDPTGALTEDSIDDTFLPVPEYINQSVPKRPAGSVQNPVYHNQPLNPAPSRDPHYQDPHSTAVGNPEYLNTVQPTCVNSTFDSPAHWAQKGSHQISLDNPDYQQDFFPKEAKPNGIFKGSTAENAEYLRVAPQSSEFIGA
Method in brief: as §1

[5] = target: T5, EGFR Exon19Del/T790M (Homo sapiens, UniProt P00533, DEL746-750/T790M); test: Inhibition of EGFR Exon19Del/T790M biochemical enzymatic activity (HTRF); conditions: EGFR Exon19Del/T790M, 1 mM ATP, 1 h at room temperature, read-out: IC50 @Del19-T790M
T5 construct: purchased Carna Bio
T5 sequence (P00533 with tags, fused parts or gaps DEL746-750/T790M limits assumed): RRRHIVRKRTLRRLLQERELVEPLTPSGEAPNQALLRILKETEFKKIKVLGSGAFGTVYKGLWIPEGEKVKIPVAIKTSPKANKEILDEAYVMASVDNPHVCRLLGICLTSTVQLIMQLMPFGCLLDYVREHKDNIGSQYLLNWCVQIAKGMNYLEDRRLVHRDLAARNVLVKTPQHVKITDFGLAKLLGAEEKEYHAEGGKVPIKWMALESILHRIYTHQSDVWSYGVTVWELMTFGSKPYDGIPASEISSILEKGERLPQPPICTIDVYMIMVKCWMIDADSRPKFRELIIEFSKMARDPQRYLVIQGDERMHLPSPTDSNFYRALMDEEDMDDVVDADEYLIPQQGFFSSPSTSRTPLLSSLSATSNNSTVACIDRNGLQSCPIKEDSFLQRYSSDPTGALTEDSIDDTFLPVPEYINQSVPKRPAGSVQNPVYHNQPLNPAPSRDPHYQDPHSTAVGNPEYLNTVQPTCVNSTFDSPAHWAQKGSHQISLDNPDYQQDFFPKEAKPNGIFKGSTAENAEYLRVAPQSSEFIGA
Method in brief: as §1

[6] = target: T6, EGFR[T790M/C797S/L858R] (Homo sapiens, UniProt P00533, C797S/L858R/T790M); test: Inhibition of EGFR[T790M/C797S/L858R] biochemical enzymatic activity (HTRF); conditions: EGFR[T790M/C797S/L858R], 1 mM ATP, 1 h at room temperature, read-out: IC50 @T790M- C797S - L858R
T6 construct: purchased Carna Bio
Method in brief: as §1

[7] = target: T7, EGFR[T790M/C797S/d746-750] (Homo sapiens, UniProt P00533, C797S/DEL746-750/T790M); test: Inhibition of EGFR[T790M/C797S/d746-750] biochemical enzymatic activity (HTRF); conditions: EGFR[T790M/C797S/d746-750], 1 mM ATP, 1 h at room temperature, read-out: IC50 @T790M - C797S - Del19
T7 construct: purchased Carna Bio
T7 sequence (P00533 with tags, fused parts or gaps DEL746-750/T790M/C797S limits assumed): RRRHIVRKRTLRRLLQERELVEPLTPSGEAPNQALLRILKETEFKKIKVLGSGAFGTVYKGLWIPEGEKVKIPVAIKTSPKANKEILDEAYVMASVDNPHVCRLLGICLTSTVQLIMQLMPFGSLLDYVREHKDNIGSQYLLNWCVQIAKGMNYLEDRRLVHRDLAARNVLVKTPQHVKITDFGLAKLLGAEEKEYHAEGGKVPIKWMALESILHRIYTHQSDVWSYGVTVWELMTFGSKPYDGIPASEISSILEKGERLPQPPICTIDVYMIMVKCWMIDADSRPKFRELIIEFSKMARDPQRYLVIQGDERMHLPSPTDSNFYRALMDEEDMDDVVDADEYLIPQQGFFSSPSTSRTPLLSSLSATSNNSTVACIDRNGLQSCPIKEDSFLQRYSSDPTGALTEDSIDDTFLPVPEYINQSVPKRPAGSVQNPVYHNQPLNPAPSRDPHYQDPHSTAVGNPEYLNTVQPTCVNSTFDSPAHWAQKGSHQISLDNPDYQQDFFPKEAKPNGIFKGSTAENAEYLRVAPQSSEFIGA
Method in brief: as §1

[8] = target: T8, EGFR (d746-750 C797S) (Homo sapiens, UniProt P00533, C797S/DEL746-750); test: Inhibition of EGFR (d746-750 C797S) biochemical enzymatic activity (HTRF); conditions: EGFR (d746-750 C797S), 1 mM ATP, 1 h at room temperature, read-out: IC50 @Del19-C797S
T8 construct: purchased signalchem
T8 sequence (P00533 with tags, fused parts or gaps DEL746-750/C797S limits assumed): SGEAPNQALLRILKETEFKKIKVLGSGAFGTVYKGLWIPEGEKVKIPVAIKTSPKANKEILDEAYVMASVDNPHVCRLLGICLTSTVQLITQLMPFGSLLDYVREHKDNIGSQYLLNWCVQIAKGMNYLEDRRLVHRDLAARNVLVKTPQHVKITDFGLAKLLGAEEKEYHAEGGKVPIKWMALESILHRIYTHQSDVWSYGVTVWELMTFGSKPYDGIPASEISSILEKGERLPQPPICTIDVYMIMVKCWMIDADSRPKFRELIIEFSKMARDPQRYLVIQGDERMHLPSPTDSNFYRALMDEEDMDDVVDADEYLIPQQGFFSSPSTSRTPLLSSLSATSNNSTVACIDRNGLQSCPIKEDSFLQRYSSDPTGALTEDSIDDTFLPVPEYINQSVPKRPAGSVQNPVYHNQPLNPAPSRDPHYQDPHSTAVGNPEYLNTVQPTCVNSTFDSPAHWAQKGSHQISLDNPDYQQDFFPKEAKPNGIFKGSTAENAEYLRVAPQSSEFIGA
Method in brief: as §1

[9] = target: T9, EGFR (C797S L858R) (Homo sapiens, UniProt P00533, C797S/L858R); test: Inhibition of EGFR (C797S L858R) biochemical enzymatic activity (HTRF); conditions: EGFR (C797S L858R), 1 mM ATP, 1 h at room temperature, read-out: IC50 @L858-C797S
T9 construct: purchased signalchem
T9 sequence (P00533 25-1210 C797S/L858R): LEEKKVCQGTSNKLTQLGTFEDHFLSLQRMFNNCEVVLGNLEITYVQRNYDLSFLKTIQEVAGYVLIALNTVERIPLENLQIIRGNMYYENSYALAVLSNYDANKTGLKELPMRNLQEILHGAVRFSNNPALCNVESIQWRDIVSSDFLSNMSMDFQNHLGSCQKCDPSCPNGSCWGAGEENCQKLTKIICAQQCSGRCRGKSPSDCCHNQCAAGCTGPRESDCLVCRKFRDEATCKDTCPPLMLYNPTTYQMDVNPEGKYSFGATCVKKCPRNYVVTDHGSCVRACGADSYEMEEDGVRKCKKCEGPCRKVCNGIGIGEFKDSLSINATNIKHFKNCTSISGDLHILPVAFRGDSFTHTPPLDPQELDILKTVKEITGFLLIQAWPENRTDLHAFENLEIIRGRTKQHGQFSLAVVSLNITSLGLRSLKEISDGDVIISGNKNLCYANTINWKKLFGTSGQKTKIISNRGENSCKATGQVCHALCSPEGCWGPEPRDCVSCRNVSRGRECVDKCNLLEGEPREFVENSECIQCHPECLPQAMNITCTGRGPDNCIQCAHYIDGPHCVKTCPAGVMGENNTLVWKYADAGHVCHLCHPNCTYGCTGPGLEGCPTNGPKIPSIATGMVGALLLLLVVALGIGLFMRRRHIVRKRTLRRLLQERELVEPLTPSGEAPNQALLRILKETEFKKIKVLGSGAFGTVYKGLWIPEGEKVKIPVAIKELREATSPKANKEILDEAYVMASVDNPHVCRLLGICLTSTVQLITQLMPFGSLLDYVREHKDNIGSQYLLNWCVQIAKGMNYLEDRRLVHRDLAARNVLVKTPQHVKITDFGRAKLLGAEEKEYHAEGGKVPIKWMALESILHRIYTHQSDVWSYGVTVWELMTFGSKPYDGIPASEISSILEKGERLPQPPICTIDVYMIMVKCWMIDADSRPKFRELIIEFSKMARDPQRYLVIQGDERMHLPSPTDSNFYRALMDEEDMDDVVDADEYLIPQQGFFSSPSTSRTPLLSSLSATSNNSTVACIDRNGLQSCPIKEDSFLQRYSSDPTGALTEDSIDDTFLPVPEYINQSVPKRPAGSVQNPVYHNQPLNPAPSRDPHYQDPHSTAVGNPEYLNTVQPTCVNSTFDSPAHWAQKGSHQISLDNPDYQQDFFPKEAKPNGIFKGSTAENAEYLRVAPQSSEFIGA
Method in brief: as §1

[10] = test system: Ba/F3 cells expressing EGFR mutations; test: Cell proliferation assay, Ba/F3 cells expressing EGFR mutations (CellTiter-Glo, 72 hours); type: cell-based
Method in brief: (§2)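 Cells are exposed to graded compound concentrations after overnight plating, using 500 PC-9 or 5000 Ba/F3 per well. Baseline-subtracted viability is compared with vehicle to give percent proliferation, then GI50.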

[11] = test system: PC-9; test: Cell proliferation assay, PC-9 cells (CellTiter-Glo, 72 hours); type: cell-based; conditions: PC9 cells, read-out: GI50 PC9
Method in brief: as §2

[12] = BaF3 cells, EGFR DEL19 - C797S, read-out: GI50 DEL19 - C797S/BaF3
[13] = BaF3 cells, EGFR DEL19 - T790-C797S, read-out: GI50 DEL19 - T790-C797S/BaF3
[14] = BaF3 cells, EGFR L858R - C797S, read-out: GI50 L858R - C797S/BaF3
[15] = BaF3 cells, EGFR L858R - T790-C797S, read-out: GI50 L858R - T790-C797S/BaF3
[16] = BaF3 cells, EGFR L858R - T790M, read-out: GI50 L858R - T790M/BaF3
[17] = BaF3 cells, EGFR L858R, read-out: GI50 L858R/BaF3
[18] = EGFR DEL19 - T790M, read-out: GI50 DEL19 - T790M

SMILES	IC50 [1] [nM]	IC50 [2] [nM]	IC50 [3] [nM]	IC50 [4] [nM]	IC50 [5] [nM]	IC50 [6] [nM]	IC50 [7] [nM]	IC50 [8] [nM]	IC50 [9] [nM]	GI50 [10, 12] [nM]	GI50 [10, 13] [nM]	GI50 [10, 14] [nM]	GI50 [10, 15] [nM]	GI50 [10, 16] [nM]	GI50 [10, 17] [nM]	GI50 [10, 18] [nM]	GI50 [11] [nM]
Cc1cc2cc(n1)-c1cnn(C)c1OCCN1CC3CCC(C3)(C1)n1c(nc3ccc(N4CC[C@@H](N(C)C)C4)cc31)NC2=O (single isomer, unassigned) [Example B42B]	734	51	9.9	13	10	5.7	6.3	7	15	2	2	3	2	2	5	2	9
Cc1cc2cc(n1)-c1cnn(C)c1OCCN1CC3CCC(C3)(C1)n1c(nc3ccc(N4CCC(N5CCOCC5)C4)cc31)NC2=O (single isomer, unassigned) [Example B44A1]	> 5000	> 5000	> 5000	> 5000	> 5000	> 5000	4530	> 5000	> 5000	470	454	850	114	392	3200	1210	2300
Cc1cc2cc(n1)-c1cnn(C)c1OCCN1CC3CCC(C3)(C1)n1c(nc3ccc(N(C)CCN(C)C)cc31)NC2=O (single isomer, unassigned) [Example B47A]	> 5000	> 5000	> 5000	4170	4260	> 5000	1820	3460	> 5000	371	500	721	97	380	2990	417	2260
